In patent US20240400576A1, “NITROGEN-CONTAINING DERIVATIVES OF SALINOMYCIN, SYNTHESIS AND USES THEREOF” (Centre National de la Recherche Scientifique, priority 2021, published 2024):
Read-outs that look alike come from different tables or passages of the source.

Key:
[1] = tested on: HMLER CD24^low/CD44^high cells; assay: Cell viability assay (CellTiter-Blue, 72 h) in HMLER breast cancer stem cell model; assay type: cell-based, human; settings: for Selectivity: ratio of the IC50 ID2 to the IC50 HMLER; for IC50: Homo sapiens
Method: (§1) The compounds have been evaluated against a model of breast cancer stem cells (HMLER) and matching non-stem cells (namely ID2 of HIMLER CD24^high/CD4^high/low), and in MCF10A cells (normal breast cell line).
(§2) Each IC50 value was determined in biological triplicate (three independent biological experiments), and each triplicate was determined in at least technical duplicate.
HMLER cells naturally repressing E-cadherin, obtained from human mammary epithelial cells infected with a retrovirus carrying hTERT, SV40, and the oncogenic allele H-rasV12, were cultured in DMEM/F12 (Gibco, 31331-028) supplemented with 10% FBS, 10 μg/mL insulin (Sigma-Aldrich, 10516), 0.5 ug/mL hydrocortisone (Sigma-Aldrich, H0888), and 0.5 ug/mL puromycin (Life Technologies, A11138-02); cells were a generous gift from Alain Puisieux (INSERM). All cells were incubated at 37° C. with 5% CO2. HMLER CD44low/high cells stained with CD24-APC and CD44-PE antibodies were sorted by FACS using an Aria Ilu (BD Biosciences) to obtain isolated CD24^low/CD44^high and CD24^high/CD44^low cell populations. HMLER CD24^low/CD44^high cells were supplemented with 10 ng/ml human epidermal growth factor (EGF, Miltenyi Biotec, 130-093-750, 100 ng/ml), while HMLER CD24^high/CD44^low cells were grown without EGF. MCF10A cells (ATCC, CRL-10317) were cultured in DMEM/F12 supplemented with 10% horse serum (Invitrogen, 16050-122), 10 μg/mL insulin, 10 ng/ml EGF, 0.5 μg/mL hydrocortisone, 100 ng/ml cholera toxin (Sigma-Aldrich, C8052), and 1× PenStrep (Invitrogen, 15070-063).
The cell viability assay was carried out by plating 1000 cells per well in 96-well plates. The cells were treated for 72 h in a range between 12 nM and 50 µM or 0.3 nM and 4 μM using serial dilutions following the manufacturer's protocol. Very briefly, the CellTiter-Blue reagent (G8081, Promega) was added to the wells after 72 h of treatment, and cells were incubated for 3 h before fluorescence intensities (λex=560/20 nm; λem=590/10 nm) were recorded using a PerkinElmer Wallac 1420 Victor2 microplate reader. The IC50 cell viability curves were plotted using the Prism 8 software for the synthesized compounds against HMLER CD24^low/CD44^high and the isogenic cell line HMLER CD24^high/CD44^low.
All derivatives were assessed for their antiproliferative activity and selectivity toward a well-established model of mesenchymal CSCs (HMLER CD24^low/CD44^high) together with their epithelial counterparts (HMLER CD24^high/CD44^low) lacking CSC properties. […] Specifically, compounds 6, 8, and 9 were identified to be particularly interesting in this context, with IC50 values of 30, 3, and 9 nM, respectively, together with their outstanding selectivities (Sls between 20.0 and 90.0).

MCF10A cells = assay: Cell viability assay (CellTiter-Blue, 72 h) in MCF10A normal breast cell line; assay type: cell-based; settings: Homo sapiens, MCF-10A, read-out: MCF10A (IC50, μM)
Method: as §1, §2
HMLER cells naturally repressing E-cadherin, obtained from human mammary epithelial cells infected with a retrovirus carrying hTERT, SV40, and the oncogenic allele H-rasV12, were cultured in DMEM/F12 (Gibco, 31331-028) supplemented with 10% FBS, 10 μg/mL insulin (Sigma-Aldrich, 10516), 0.5 ug/mL hydrocortisone (Sigma-Aldrich, H0888), and 0.5 ug/mL puromycin (Life Technologies, A11138-02); cells were a generous gift from Alain Puisieux (INSERM). All cells were incubated at 37° C. with 5% CO2. […]
(§3) The cell viability assay was carried out by plating 1000 cells per well in 96-well plates. […] Very briefly, the CellTiter-Blue reagent (G8081, Promega) was added to the wells after 72 h of treatment, and cells were incubated for 3 h before fluorescence intensities (λex=560/20 nm; λem=590/10 nm) were recorded using a PerkinElmer Wallac 1420 Victor2 microplate reader. […]

[2] = tested on: ID2 (HMLER CD24^high/CD44^low) cells; assay: Cell viability assay (CellTiter-Blue, 72 h) in ID2 matching non-stem cells; assay type: cell-based; settings: Homo sapiens, read-out: ID2 cancer cells (IC50, μM)
Method: as §1
Each IC50 value was determined in biological triplicate (three independent biological experiments), and each triplicate was determined in at least technical duplicate. […]
as §3
All derivatives were assessed for their antiproliferative activity and selectivity toward a well-established model of mesenchymal CSCs (HMLER CD24^low/CD44^high) together with their epithelial counterparts (HMLER CD24^high/CD44^low) lacking CSC properties. […]

[3] = 72 h, read-out: HMLER cancer cells (IC50, μM)
[4] = cell viability, 72 h treatment, CellTiter-Blue, biological triplicate, read-out: HMLER cancer cells (IC50)

Structure (SMILES) | Selectivity [1] | other results
CC[C@@H](C(=O)[C@@H](C)[C@@H](O)[C@H](C)[C@@H]1O[C@@H]([C@@H](CC)C(=O)[O-])CC[C@@H]1C)[C@H]1O[C@]2(C=C[C@H](NCC(C)C)[C@]3(CC[C@@](C)([C@H]4CC[C@](O)(CC)[C@H](C)O4)O3)O2)[C@H](C)C[C@@H]1C.[Na+] [Compound 4] | 11.0 | 
CCN[C@H]1C=C[C@]2(O[C@H]([C@@H](CC)C(=O)[C@@H](C)[C@@H](O)[C@H](C)[C@@H]3O[C@@H]([C@@H](CC)C(=O)[O-])CC[C@@H]3C)[C@@H](C)C[C@H]2C)O[C@@]12CC[C@@](C)([C@H]1CC[C@](O)(CC)[C@H](C)O1)O2.[Na+] [Compound 1] | 6.1 | 
CC[C@@H](C(=O)[C@@H](C)[C@@H](O)[C@H](C)[C@@H]1O[C@@H]([C@@H](CC)C(=O)O)CC[C@@H]1C)[C@H]1O[C@]2(C=C[C@@H](O)[C@]3(CC[C@@](C)([C@H]4CC[C@](O)(CC)[C@H](C)O4)O3)O2)[C@H](C)C[C@@H]1C [Salinomycin] | 3.1 | IC50 (MCF10A cells): 1.13 ± 0.14 µM; IC50 [1, 3]: 1.39 ± 0.1 µM; IC50 [2]: 4.36 ± 0.5 µM
CC[C@@H](C(=O)[C@@H](C)[C@@H](O)[C@H](C)[C@@H]1O[C@@H]([C@@H](CC)C(=O)[O-])CC[C@@H]1C)[C@H]1O[C@]2(C=C[C@H](N(CC)CC)[C@]3(CC[C@@](C)([C@H]4CC[C@](O)(CC)[C@H](C)O4)O3)O2)[C@H](C)C[C@@H]1C.[Na+] [Compound 8] | 90.0 | IC50 [1, 4]: 0.003 ± 0.0005 µM
CC[C@@H](C(=O)[C@@H](C)[C@@H](O)[C@H](C)[C@@H]1O[C@@H]([C@@H](CC)C(=O)[O-])CC[C@@H]1C)[C@H]1O[C@]2(C=C[C@H](NCc3ccc(O)cc3)[C@]3(CC[C@@](C)([C@H]4CC[C@](O)(CC)[C@H](C)O4)O3)O2)[C@H](C)C[C@@H]1C.[Na+] [Compound 15] | 12.4 | 
CCCCCN(CCCCC)[C@H]1C=C[C@]2(O[C@H]([C@@H](CC)C(=O)[C@@H](C)[C@@H](O)[C@H](C)[C@@H]3O[C@@H]([C@@H](CC)C(=O)[O-])CC[C@@H]3C)[C@@H](C)C[C@H]2C)O[C@@]12CC[C@@](C)([C@H]1CC[C@](O)(CC)[C@H](C)O1)O2.[Na+] [Compound 11] | 7.7 | 
CC[C@@H](C(=O)[C@@H](C)[C@@H](O)[C@H](C)[C@@H]1O[C@@H]([C@@H](CC)C(=O)[O-])CC[C@@H]1C)[C@H]1O[C@]2(C=C[C@H](NCc3ccccc3)[C@]3(CC[C@@](C)([C@H]4CC[C@](O)(CC)[C@H](C)O4)O3)O2)[C@H](C)C[C@@H]1C.[Na+] [Compound 14] | 6.2 | 
CCCCN[C@H]1C=C[C@]2(O[C@H]([C@@H](CC)C(=O)[C@@H](C)[C@@H](O)[C@H](C)[C@@H]3O[C@@H]([C@@H](CC)C(=O)[O-])CC[C@@H]3C)[C@@H](C)C[C@H]2C)O[C@@]12CC[C@@](C)([C@H]1CC[C@](O)(CC)[C@H](C)O1)O2.[Na+] [Compound 3] | 15.2 | 
CCCCCCCCCCCCN[C@H]1C=C[C@]2(O[C@H]([C@@H](CC)C(=O)[C@@H](C)[C@@H](O)[C@H](C)[C@@H]3O[C@@H]([C@@H](CC)C(=O)[O-])CC[C@@H]3C)[C@@H](C)C[C@H]2C)O[C@@]12CC[C@@](C)([C@H]1CC[C@](O)(CC)[C@H](C)O1)O2.[Na+] [Compound 7] | 4.1 | 
CCCCN(CCCC)[C@H]1C=C[C@]2(O[C@H]([C@@H](CC)C(=O)[C@@H](C)[C@@H](O)[C@H](C)[C@@H]3O[C@@H]([C@@H](CC)C(=O)[O-])CC[C@@H]3C)[C@@H](C)C[C@H]2C)O[C@@]12CC[C@@](C)([C@H]1CC[C@](O)(CC)[C@H](C)O1)O2.[Na+] [Compound 10] | 7.6 | 
CCCCCCCCCCCCN(CCCCCCCCCCCC)[C@H]1C=C[C@]2(O[C@H]([C@@H](CC)C(=O)[C@@H](C)[C@@H](O)[C@H](C)[C@@H]3O[C@@H]([C@@H](CC)C(=O)[O-])CC[C@@H]3C)[C@@H](C)C[C@H]2C)O[C@@]12CC[C@@](C)([C@H]1CC[C@](O)(CC)[C@H](C)O1)O2.[Na+] [Compound 13] | 5.2 | 
CCCCCCN[C@H]1C=C[C@]2(O[C@H]([C@@H](CC)C(=O)[C@@H](C)[C@@H](O)[C@H](C)[C@@H]3O[C@@H]([C@@H](CC)C(=O)[O-])CC[C@@H]3C)[C@@H](C)C[C@H]2C)O[C@@]12CC[C@@](C)([C@H]1CC[C@](O)(CC)[C@H](C)O1)O2.[Na+] [Compound 6] | 24.7 | IC50 [1, 4]: 0.03 ± 0.01 µM
CCCCCN[C@H]1C=C[C@]2(O[C@H]([C@@H](CC)C(=O)[C@@H](C)[C@@H](O)[C@H](C)[C@@H]3O[C@@H]([C@@H](CC)C(=O)[O-])CC[C@@H]3C)[C@@H](C)C[C@H]2C)O[C@@]12CC[C@@](C)([C@H]1CC[C@](O)(CC)[C@H](C)O1)O2.[Na+] [Compound 5] | 10.8 | 
CC[C@@H](C(=O)[C@@H](C)[C@@H](O)[C@H](C)[C@@H]1O[C@@H]([C@@H](CC)C(=O)[O-])CC[C@@H]1C)[C@H]1O[C@]2(C=C[C@H](NCc3ccc(F)cc3)[C@]3(CC[C@@](C)([C@H]4CC[C@](O)(CC)[C@H](C)O4)O3)O2)[C@H](C)C[C@@H]1C.[Na+] [Compound 17] | 10.2 | 
CCCN(CCC)[C@H]1C=C[C@]2(O[C@H]([C@@H](CC)C(=O)[C@@H](C)[C@@H](O)[C@H](C)[C@@H]3O[C@@H]([C@@H](CC)C(=O)[O-])CC[C@@H]3C)[C@@H](C)C[C@H]2C)O[C@@]12CC[C@@](C)([C@H]1CC[C@](O)(CC)[C@H](C)O1)O2.[Na+] [Compound 9] | 20.0 | IC50 [1, 4]: 0.009 ± 0.0002 µM
CCCN[C@H]1C=C[C@]2(O[C@H]([C@@H](CC)C(=O)[C@@H](C)[C@@H](O)[C@H](C)[C@@H]3O[C@@H]([C@@H](CC)C(=O)[O-])CC[C@@H]3C)[C@@H](C)C[C@H]2C)O[C@@]12CC[C@@](C)([C@H]1CC[C@](O)(CC)[C@H](C)O1)O2.[Na+] [Compound 2] | 10.1 | 
CCCCCCN(CCCCCC)[C@H]1C=C[C@]2(O[C@H]([C@@H](CC)C(=O)[C@@H](C)[C@@H](O)[C@H](C)[C@@H]3O[C@@H]([C@@H](CC)C(=O)[O-])CC[C@@H]3C)[C@@H](C)C[C@H]2C)O[C@@]12CC[C@@](C)([C@H]1CC[C@](O)(CC)[C@H](C)O1)O2.[Na+] [Compound 12] | 13.3 | 
CC[C@@H](C(=O)[C@@H](C)[C@@H](O)[C@H](C)[C@@H]1O[C@@H]([C@@H](CC)C(=O)[O-])CC[C@@H]1C)[C@H]1O[C@]2(C=C[C@H](NCc3ccc(C)cc3)[C@]3(CC[C@@](C)([C@H]4CC[C@](O)(CC)[C@H](C)O4)O3)O2)[C@H](C)C[C@@H]1C.[Na+] [Compound 16] | 12.7 | 
CC[C@@H](C(=O)[C@@H](C)[C@@H](O)[C@H](C)[C@@H]1O[C@@H]([C@@H](CC)C(=O)[O-])CC[C@@H]1C)[C@H]1O[C@]2(C=C[C@H](NCc3ccc(Cl)cc3)[C@]3(CC[C@@](C)([C@H]4CC[C@](O)(CC)[C@H](C)O4)O3)O2)[C@H](C)C[C@@H]1C.[Na+] [Compound 18] | 11.0 | 
C#CCN(CC#C)[C@H]1C=C[C@]2(O[C@H]([C@@H](CC)C(=O)[C@@H](C)[C@@H](O)[C@H](C)[C@@H]3O[C@@H]([C@@H](CC)C(=O)O)CC[C@@H]3C)[C@@H](C)C[C@H]2C)O[C@@]12CC[C@@](C)([C@H]1CC[C@](O)(CC)[C@H](C)O1)O2 [Compound 19, C20-epi-dipropargyloaminosalinomycin] | 3.5 | IC50 [1, 3]: 2.4 µM; IC50 [2]: 8.43 µM
